Source: patent publication US9388202B2, “Luminescent probes for biological labeling and imaging, method for preparing same” (CENTRE NATIONAL DE LA RECHERCHE SCIENTIFIQUE, priority 2011, dated 2016)
Several values for one entry are separate records, joined by “and”; a condition that tells them apart may be missing. Identical values can stand only once.

Key:
Format in all cases: physicochemical
[1] = Absorption properties of the terbium and europium complexes in TRIS/HCl buffer; settings: 0.01M TRIS/HCl buffer at pH = 7.0
Description: By way of example, all of the absorption and emission properties of the terbium and europium complexes synthesized from the ligands (I-1) to (I-4) in accordance with the invention are summarized in Table 1 below: […]

[2] = Stability of terbium complexes (luminescence lifetime) in buffers with ligands capable of decomplexing the lanthanide ions; settings: for stability: various aqueous media
Procedure: By way of example, the stability of the terbium complexes synthesized from the ligands (I-1) to (I-4) in accordance with the invention is given in Table 2 below. Various buffers in the presence of ligands capable of decomplexing the lanthanide ions were tested. For comparative purposes, Table 2 also gives the stability of a terbium complex TbL4 of the prior art corresponding to the following formula: […]

[3] = Emission properties: luminescence lifetime and quantum luminescence yield in water and D2O; settings: for Emission τ (luminescence lifetime): error estimated ±5%; for Emission φ (quantum luminescence yield): error estimated ±15%
Description: Their optical luminescence properties, the luminescence lifetimes and the brightness properties are exceptional, with quantum yields of about 38% for Tb, 18% for Eu and lifetimes of the excited states of greater than 3 milliseconds for the Tb(I-3) and Tb(I-4) complexes.
By way of example, all of the absorption and emission properties of the terbium and europium complexes synthesized from the ligands (I-1) to (I-4) in accordance with the invention are summarized in Table 1 below:
The parameters φ and τ represent, respectively, the quantum luminescence yields and the luminescence lifetimes. They may be measured in water and in D2O.

[4] = Tris 50 mM - Serum 50%, pH = 7.0
[5] = Tris 0.1M - EDTA 10 mM, pH = 7.0
[6] = Tris 0.1M - KF 400 mM, pH = 7.0

Row | SMILES | Absorption λabs [1] | τ ([2]; H2O, estimated error ±5%) [ms] | τ ([2]; Phosphate 0.1M, pH = 7.0) [ms] | τ [2, 4] [ms] | τ [2, 5] [ms] | τ [2, 6] [ms] | τ ([2]; Tris 0.1M, pH = 7.0) [ms] | Emission τ (luminescence lifetime) ([3]; D2O) [ms] | Emission φ (quantum luminescence yield) ([3]; D2O) [%] | Emission τ (luminescence lifetime) ([3]; H2O) [ms] | Emission φ (quantum luminescence yield) ([3]; H2O) [%] | stability [2]
1 | CCOP(=O)([O-])CN(CC(=O)[O-])Cc1cc(C#Cc2ccc(C#CCCCCC(=O)[O-])c3ccccc23)cc(CN(CC(=O)[O-])CP(=O)([O-])OCC)n1.[Na+].[Na+].[Tb+3] [Tb(I-2)] | 270 nm and 349 nm | 2.6 | 2.5 | 2.4 | 2.4 | 2.5 | 2.5 | 3.2 | 45 | 2.6 | 32 | –
2 | CCOP(=O)([O-])CN(CC(=O)[O-])Cc1cc(C#Cc2ccc(C#CCCCCC(=O)[O-])c3ccccc23)cc(CN(CC(=O)[O-])CP(=O)([O-])OCC)n1.[Eu+3].[Na+].[Na+] [Eu(I-2)] | 265 nm and 347 nm | – | – | – | – | – | – | 2.4 | 26 | 1.6 | 17 | –
3 | CCOP(=O)([O-])CN(CC(=O)[O-])Cc1cc(C#Cc2ccc(C(=O)NCCCC(=O)[O-])c3ccccc23)cc(CN(CC(=O)[O-])CP(=O)([O-])OCC)n1.[Na+].[Na+].[Tb+3] [Tb(I-1)] | 268 nm and 348 nm | 2.8 | 2.7 | 2.6 | 2.6 | 2.6 | 2.7 | 3.1 | 46 | 2.8 | 35 | –
4 | CCOP(=O)([O-])CN(Cc1cc(C#Cc2ccc(C(=O)NCCCC(=O)[O-])c3ccccc23)cc(CN(CP(=O)([O-])OCC)CP(=O)([O-])OCC)n1)CP(=O)([O-])OCC.[Eu+3].[Na+].[Na+] [Eu(I-3)] | 270 nm and 352 nm | – | – | – | – | – | – | 2.5 | 22 | 1.7 | 18 | –
5 | CCOP(=O)([O-])CN(Cc1cc(C#Cc2ccc(C(=O)NCCCC(=O)[O-])c3ccccc23)cc(CN(CP(=O)([O-])OCC)CP(=O)([O-])OCC)n1)CP(=O)([O-])OCC.[Na+].[Na+].[Tb+3] [Tb(I-3)] | 272 nm and 353 nm | 3.1 | 2.9 | 3.0 | 3.0 | 2.9 | 3.0 | 3.4 | 42 | 3.1 | 38 | excellent stability
6 | CCOP(=O)([O-])CN(Cc1cc(C#Cc2ccc(C#CCCCCC(=O)[O-])c3ccccc23)cc(CN(CP(=O)([O-])OCC)CP(=O)([O-])OCC)n1)CP(=O)([O-])OCC.[Na+].[Na+].[Tb+3] [Tb(I-4)] | 272 nm and 352 nm | 3.2 | 3.0 | 3.0 | 3.1 | 3.0 | 3.1 | 3.5 | 41 | 3.2 | 36 | excellent stability
7 | CCOP(=O)([O-])CN(CC(=O)[O-])Cc1cc(C#Cc2ccc(C(=O)NCCCC(=O)[O-])c3ccccc23)cc(CN(CC(=O)[O-])CP(=O)([O-])OCC)n1.[Eu+3].[Na+].[Na+] [Eu(I-1)] | 266 nm and 349 nm | – | – | – | – | – | – | 2.4 | 24 | 1.5 | 16 | –
8 | CCOP(=O)([O-])CN(Cc1cc(C#Cc2ccc(C#CCCCCC(=O)[O-])c3ccccc23)cc(CN(CP(=O)([O-])OCC)CP(=O)([O-])OCC)n1)CP(=O)([O-])OCC.[Eu+3].[Na+].[Na+] [Eu(I-4)] | 268 nm and 350 nm | – | – | – | – | – | – | 2.5 | 24 | 1.6 | 17 | –
